Test results from PubChem BioAssay (NCI).
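96-well plates; 48 h exposure; 5 concentrations. Endpoints by linear interpolation between flanking doses. Not reached: highest tested concentration assigned. Abbreviation: GI50, concentration required for 50% inhibition of growth. TGI marks complete inhibition of growth.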

How the values were obtained:
Assay in all cases: NCI tumour cell line growth inhibition, 48 h
NCI-H460 lung = system: NCI-H460 lung
DU-145 prostate = system: DU-145 prostate
HCT-116 colon = system: HCT-116 colon
HCC-2998 colon = system: HCC-2998 colon
MCF7 breast = system: MCF7 breast
NCI-H522 lung = system: NCI-H522 lung
LOX IMVI melanoma = system: LOX IMVI melanoma
RXF 393 renal = system: RXF 393 renal
CCRF-CEM leukemia = system: CCRF-CEM leukemia
786-0 renal = system: 786-0 renal

SMILES | GI50 (NCI-H460 lung) | TGI (NCI-H460 lung) | GI50 (DU-145 prostate) | TGI (DU-145 prostate) | GI50 (HCT-116 colon) | TGI (HCT-116 colon) | GI50 (HCC-2998 colon) | TGI (HCC-2998 colon) | GI50 (MCF7 breast) | TGI (MCF7 breast) | GI50 (NCI-H522 lung) | GI50 (LOX IMVI melanoma) | TGI (LOX IMVI melanoma) | GI50 (RXF 393 renal) | TGI (RXF 393 renal) | GI50 (CCRF-CEM leukemia) | TGI (CCRF-CEM leukemia) | GI50 (786-0 renal) | TGI (786-0 renal) | TGI (NCI-H522 lung)
COc1cc(C2CC(c3ccc4c(c3)OCO4)=NN2C(C)=O)cc(OC)c1OC (configuration not stated) | 398 nM | > 59.8 µM | 1060 nM | > 21.4 µM | 491 nM | > 100 µM | 2360 nM | 60 µM | 352 nM | > 100 µM | 382 nM | 1890 nM | > 100 µM | 1560 nM | > 23.2 µM | 790 nM | > 27 µM | 3650 nM | > 100 µM | –
CCCCCCNC(=O)Oc1ccc(/C(=C(\C)c2ccccc2)c2ccc(OCCN3CCCCC3)cc2)cc1 | 2050 nM | 4.35 µM | 3690 nM | 15.3 µM | 1490 nM | 2.89 µM | 2960 nM | 8.92 µM | 42.8 nM | 3.64 µM | 1910 nM | 1710 nM | 3.09 µM | 1520 nM | 3.32 µM | 3050 nM | 17.2 µM | 1690 nM | 3.12 µM | 4.07 µM
COc1cccc(Cn2cc3c(c2)-c2oncc2CC3)c1 | 338 nM | 4.1 µM | 314 nM | 1.24 µM | 430 nM | 29.4 µM | 442 nM | 7.98 µM | 378 nM | > 100 µM | 326 nM | 912 nM | > 100 µM | 368 nM | – | 253 nM | – | 1980 nM | > 100 µM | 1.89 µM
O=C1/C(=C/c2ccc([N+](=O)[O-])s2)Oc2ccccc21 | 1510 nM | 3.53 µM | 2430 nM | 5.56 µM | 267 nM | 0.791 µM | 1420 nM | 2.89 µM | 750 nM | 5.02 µM | 189 nM | 434 nM | 1.64 µM | 1100 nM | 2.85 µM | 282 nM | 0.874 µM | 2420 nM | 6.29 µM | 0.382 µM
CCCCCCCCCCCCOC1C(C(COC2OC(C(O)CN3CCCCC3)C3OC(C)(C)OC23)NC(=O)Nc2ccccc2)OC2OC(C)(C)OC21 (configuration not stated) | 4520 nM | 16.9 µM | 11900 nM | 25.7 µM | 4540 nM | 12.7 µM | 4610 nM | 9.97 µM | 3160 nM | 10.6 µM | 17500 nM | 7870 nM | 26.1 µM | 6030 nM | 26.1 µM | 863 nM | 2.23 µM | 14100 nM | 30.5 µM | 48 µM
COc1ccc(C2C(c3ccccc3)C(=O)N2c2cc(OC)c(OC)c(OC)c2)cc1I (configuration not stated) | 337 nM | > 100 µM | 332 nM | 75.4 µM | 343 nM | 12.4 µM | 567 nM | > 100 µM | 336 nM | > 100 µM | 276 nM | 457 nM | > 100 µM | 324 nM | > 100 µM | 365 nM | > 100 µM | 397 nM | > 100 µM | 0.887 µM
Oc1ccc(/C=N/Nc2nc3ccccc3s2)c(O)c1 | 1780 nM | 5.21 µM | 1860 nM | 17.6 µM | 2780 nM | 17.2 µM | 3760 nM | 19.4 µM | 1650 nM | 9.39 µM | 1390 nM | 3270 nM | 28.8 µM | 3360 nM | > 100 µM | 717 nM | > 100 µM | 3680 nM | 53.8 µM | 6.11 µM
Cc1[nH]nc2c1N=C(c1ccccc1F)c1cc(C#N)ccc1N2 | 106 nM | 15.6 µM | 3000 nM | 12.8 µM | 143 nM | 6.91 µM | 3580 nM | 15.9 µM | 119 nM | > 16.8 µM | 3720 nM | 285 nM | 16.3 µM | 105 nM | 1.99 µM | 113 nM | > 13.6 µM | 801 nM | 7.27 µM | 11.1 µM
Oc1ccc(Br)cc1/C=N/NC(=S)NC12CC3CC(CC(C3)C1)C2 | 645 nM | 2.17 µM | 2250 nM | 6.73 µM | 1570 nM | 4.57 µM | 1950 nM | 4.6 µM | 1860 nM | 5.92 µM | 4780 nM | 1220 nM | 2.88 µM | 1520 nM | 3.36 µM | 897 nM | 8.14 µM | 2320 nM | 5.05 µM | 16.1 µM
CS(=O)(=O)OCCN(CCOS(C)(=O)=O)c1ccc(C=Nc2ccc3oc(=O)ccc3c2)cc1 | – | 5.38 µM | – | 35.9 µM | – | > 100 µM | – | 7.77 µM | – | > 93.5 µM | – | – | 29.9 µM | – | 1.89 µM | – | 31.8 µM | – | 3.5 µM | 0.828 µM
O=C(Nc1cccc(C(F)(F)F)c1)c1cccc(NC2=C(Cl)C(=O)N(Cc3ccccc3)C2=O)c1 | 8760 nM | > 100 µM | 37200 nM | > 100 µM | 13500 nM | 39.2 µM | 16800 nM | 32.7 µM | 3280 nM | > 100 µM | 4880 nM | 3920 nM | 57.5 µM | 2390 nM | 9.29 µM | 1870 nM | 51.6 µM | 27400 nM | > 100 µM | 23.5 µM
CC(=O)NCCCCCCNC(C)=O | – | > 7500 µM | – | > 10000 µM | – | > 10000 µM | – | > 8610 µM | – | > 9380 µM | – | – | > 10000 µM | – | > 10000 µM | – | > 10000 µM | – | > 10000 µM | 9120 µM
CCn1c(-c2nonc2N)nc2c(C#CC(C)(C)O)nc(O[C@@H](CN)c3ccccc3)cc21 | 62.1 nM | 1.06 µM | 112 nM | 4.64 µM | 121 nM | 2.61 µM | 47.8 nM | 0.858 µM | 55 nM | 2.58 µM | 91.9 nM | 140 nM | 1.32 µM | 33.8 nM | 0.394 µM | 55.4 nM | 5.16 µM | 160 nM | 2.49 µM | 0.353 µM
